Changes are numbered by the printed parent chain.

The values that follow come from publication PMC11923213, “Structural characterization reveals substrate recognition by the taurine transporter TauT” (Cell Discovery, 2025).

What all share (format): cell-based
The target in test [1] is T1, TauT (taurine transporter, SLC6A6; TauT^WT) (Homo sapiens, UniProt P31641).
T1 construct: wild-type TauT expressed in Xenopus laevis oocytes for electrophysiology; cryo-EM sample details only in supplement
T1 sequence (P31641 1-620): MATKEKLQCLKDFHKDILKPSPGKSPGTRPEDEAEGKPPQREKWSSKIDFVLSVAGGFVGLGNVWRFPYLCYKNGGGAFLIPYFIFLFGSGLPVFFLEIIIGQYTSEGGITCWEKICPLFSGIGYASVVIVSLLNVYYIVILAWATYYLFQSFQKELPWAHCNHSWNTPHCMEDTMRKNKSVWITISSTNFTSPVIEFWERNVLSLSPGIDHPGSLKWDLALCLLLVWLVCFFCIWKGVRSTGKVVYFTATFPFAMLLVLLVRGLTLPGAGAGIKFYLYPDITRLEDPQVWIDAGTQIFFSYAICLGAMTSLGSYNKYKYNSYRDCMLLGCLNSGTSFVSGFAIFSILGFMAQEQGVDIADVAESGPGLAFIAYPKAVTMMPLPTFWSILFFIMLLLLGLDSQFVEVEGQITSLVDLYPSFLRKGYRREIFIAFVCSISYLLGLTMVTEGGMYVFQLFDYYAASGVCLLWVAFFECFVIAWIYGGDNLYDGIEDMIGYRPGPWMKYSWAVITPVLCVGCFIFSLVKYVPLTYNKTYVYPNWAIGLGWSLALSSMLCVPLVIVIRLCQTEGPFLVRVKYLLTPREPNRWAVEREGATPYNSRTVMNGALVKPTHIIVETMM
Put plainly: two-electrode voltage clamp in Xenopus laevis oocytes, taurine-induced inward current. (Two-electrode voltage clamp holds a large cell at a set potential and records current.)

The target in test [2] is T2, TauT (taurine transporter, SLC6A6) (Homo sapiens, UniProt P31641, E406T).
T2 construct: wild-type TauT expressed in Xenopus laevis oocytes for electrophysiology; cryo-EM sample details only in supplement
T2 sequence (P31641 1-620 E406T): T1 sequence (P31641 1-620) with E406T
Put plainly: Xenopus laevis oocytes, taurine-induced inward current.

In test [3] the target is T1, TauT (taurine transporter, SLC6A6; TauT^WT). The test is described as follows: Xenopus laevis oocytes, β-alanine-induced inward current.

As for `NCCS(=O)(=O)O` [taurine], the values for the EC50 in test [1] and in test [2] were 2.9 µM and 50.3 µM, respectively.

As to `NCCC(=O)O` [β-alanine], in test [3], the EC50 (in general, the concentration that produces a half-maximal response) turned out to be 5.6 µM.
